# Read-outs that look alike come from different tables or passages of the source.
# Assays:
# mice [1] = assay: Effects on spontaneous activities in mice; type: in vivo; conditions: for spontaneous activity compared with the vehicle control group: recorded at 0.5, 1, 2, 3 and 4 hours
# Experimental: Chlorpromazine was administered at dose of […] in the positive control group, and the same volume of propylene glycol containing 0.9% sodium chloride injection was administered in the vehicle control group. Spontaneous activity was recorded at 0.5, 1, 2, 3 and 4 hours after drug administration. The injection volume was 0.2 ml/10 g and the administration rate was 0.2 ml/10 sec.
# [2] = test system: peptostreptococcus (including Escherichia coli); assay: Abdominal infection model in mice, ED50; type: in vivo, Kunming white mice; conditions: death observed 7 days; for 95% CI of ED50: oral gavage twice
# Experimental: (§1) Kunming white mice, body weight of 20±2 g, half males and half females. 10 mice in each dose group with half females and half males. Abdominal infection models were prepared with the entire animal (mice) and treatments were conducted with the testing drugs. The therapeutical efficacy was observed and expressed as ED50 (half effective dose). Drugs were administered twice by oral gavage (administered immediately after infection for one and 6 hours after infection for the other one). The death status of animals was observed consecutively for seven days after infection and being treated.
# [3] = test system: bacteroides (including Escherichia coli) infection; assay: Abdominal infection model in mice, ED50; type: in vivo, Kunming white mice; conditions: death observed 7 days; for 95% CI of ED50: oral gavage twice
# Experimental: as §1
# mice [4] = assay: Effect on the hypnotic effect induced by sodium thiopental in mice; conditions: 40 mg/kg sodium thiopental i.p. 30 minutes later
# Experimental: The same volume of 0.9% sodium chloride injection containing propylene glycol was administered in the vehicle control group. 30 minute after drug administration, 40 mg/kg of sodium thiopental was administered to mice by intraperitoneal injection. The time for the loss of righting reflex and the time for the recovery were recorded. The injection volume was 0.2 ml/10 g, the administration rate was 0.2 ml/10 sec.
# Bacteroides = assay: In vitro MIC determination, clinical anaerobic strains; type: cell-based; conditions: 40 clinical strains, GAM broth, 72 hours anaerobic incubation at 35° C.
# Experimental: (§2) Experimental strains: isolated from clinical specimens, and species identification were conducted.
# (§3) Bacilli preparation: 4˜5 bacteria colonies with same pattern selected from anaerobic GAM plate were inoculated in GAM broth with inoculating loop. The bacteria was incubated at 35° C. under anaerobic condition until a slight turbidity was attained, and adjusted by means of sterilized saline (deoxygenated) so as to attain a turbidity equivalent to the No. 0.5 McFarland turbidity tube, then diluted with GAM broth (at 1:200) for later use.
# (§4) MIC (Minimum Inhibitory Concentration) determination: the testing drugs and control drugs were diluted with GAM broth to different concentrations in the test tubes, followed by addition of equal volume of diluted Bacilli (at 1:200), MIC values were read 72 hours after anaerobic incubation at 35° C.
# Veillonella = assay: as above; type: cell-based; conditions: 23 clinical strains, GAM broth, 72 hours anaerobic incubation at 35° C.
# Experimental: as §2, §3, §4
# Fusobacterium nucleatum = assay: as above; type: cell-based; conditions: 11 clinical strains, GAM broth, 72 hours anaerobic incubation at 35° C.
# Experimental: as §2, §3, §4
# Peptostreptococcus = assay: as above; type: cell-based; conditions: 35 clinical strains, GAM broth, 72 hours anaerobic incubation at 35° C.
# Experimental: as §2, §3, §4
# Clostridium = assay: as above; type: cell-based; conditions: 6 clinical strains, GAM broth, 72 hours anaerobic incubation at 35° C.
# Experimental: as §2, §3, §4
# mice [5] = assay: Hypnotic effect of intravenous injection in mice (righting reflex); type: in vivo
# Experimental: White mice, half males and half females, fasted for eight hours. The disappearance of righting reflex in mice was observed. The number of animals who lost their righting reflex was recorded in 30 minutes after drug administration.
# [6] = In vivo pharmacokinetics in Beagle dogs
# Experimental: The clinical dose of ornidazole is 500 mg for human. By calculating, based on body surface area, the pharmacokinetic experimental dose in Beagle dogs was 13 mg/kg in vivo. Six adult beagle dogs (half males and half females, body weight of 9˜11.5 kg) were randomly divided into three groups. According to crossover design, intravenous injection of L-, D-, and racemic ornidazole were administered in turn to each dog every other week (with one week washout period in between). 2 ml of blood was collected from the vein located at the forelimb of the dogs before drug administration and 0.083, 0.5, 1.0, 2.0, 4.0, 6.0, 8.0, 12.0, 16.0, 24.0 hours after drug administration, which was then placed in the heparinized tube, followed by centrifugation to obtain the plasma. Plasma concentration of drug was determined by HPLC. Pharmacokinetics parameters were estimated using the non-compartmental models. The corresponding pharmacokinetics parameters were obtained by BAPP2.0 using the data of plasma concentration of blood with time obtained above.
# [7] = oral gavage twice (immediately and 6 hours after infection)
# [8] = beagle dogs, individual intravenous dose 13 mg/kg, plasma
structure (smiles),measurement,setting,value
"Cc1ncc([N+](=O)[O-])n1C[C@H](O)CCl [L-ornidazole, 1-(3-chloro-2-S-(−)-hydroxypropyl)-2-methyl-5-nitroimidazole]",spontaneous activity compared with the vehicle control group,mice [1]; 40 mg/kg intravenous,significant reduction in spontaneous activity was not observed
same,recovery of spontaneous activity,mice [1]; 80 mg/kg intravenous,gradually become normal after 2 hours
same,spontaneous activity compared with the vehicle control group,mice [1]; 80 mg/kg intravenous,reduced significantly at 0.5 and 1 hour
same,recovery of spontaneous activity,mice [1]; 160 mg/kg intravenous,gradually become normal after 3 hours
same,spontaneous activity compared with the vehicle control group,mice [1]; 160 mg/kg intravenous,"reduced significantly at 0.5, 1 and 2 hours"
same,ED50 (half effective dose),[2]; [7],42.0 mg/kg
same,95% CI of ED50,[2],50.9˜34.6 mg/kg
same,ED50 (half effective dose),[3]; [7],31.0 mg/kg
same,95% CI of ED50,[3],43.3˜22.2 mg/kg
same,"duration of sleeping induced by sodium thiopental, compared with the vehicle control group",mice [4]; 40 mg/kg intravenous,did not significantly extend
same,"sleep latency induced by sodium thiopental, compared with the vehicle control group",mice [4]; 40 mg/kg intravenous,no significant reduction
same,"duration of sleeping induced by sodium thiopental, compared with the vehicle control group",mice [4]; 80 mg/kg intravenous,significantly extended
same,"sleep latency induced by sodium thiopental, compared with the vehicle control group",mice [4]; 80 mg/kg intravenous,no significant reduction
same,MIC50,Bacteroides,4.0 µg/mL
same,MIC90,Bacteroides,8.0 µg/mL
same,MIC Range,Bacteroides,20~16.0 mg/L
same,MIC50,Veillonella,4.0 µg/mL
same,MIC90,Veillonella,8.0 µg/mL
same,MIC Range,Veillonella,2.0~8.0 mg/L
same,MIC50,Fusobacterium nucleatum,2.0 µg/mL
same,MIC90,Fusobacterium nucleatum,16.0 µg/mL
same,MIC Range,Fusobacterium nucleatum,1.0~16.0 mg/L
same,MIC50,Peptostreptococcus,4.0 µg/mL
same,MIC90,Peptostreptococcus,8.0 µg/mL
same,MIC Range,Peptostreptococcus,2.0~32.0 mg/L
same,MIC50,Clostridium,2.0 µg/mL
same,MIC90,Clostridium,2.0 µg/mL
same,MIC Range,Clostridium,1.0~2.0 mg/L
same,number of mice with loss in righting reflex,"mice [5]; mice, individual dose of 160 mg/kg intravenous, within 30 minutes",No loss in righting reflex
same,loss in righting reflex,"mice [5]; mice, individual dose of 40 or 80 mg/kg intravenous, within 30 minutes",No loss in righting reflex
same,AUC0-t (area under curve),[6]; [8],90940 ± 8330 ng·h/mL
same,Cl (clearance),[6]; [8],1.22 ± 0.13 L/h
same,MRT (mean retention time of drugs),[6]; [8],10.06 ± 1.57 h
same,Vβ (elimination volume of distribution),[6]; [8],12.23 ± 1.84 L
same,t1/2 (half life),"[6]; beagle dogs, individual intravenous dose 13 mg/kg, plasma, HPLC, non-compartmental",6.97 ± 1.09 h
same,in vivo transformation of enantiomers between L- and D-ornidazole,"[6]; dog, in vivo, iv",not occurred
"Cc1ncc([N+](=O)[O-])n1CC(O)CCl (racemic) [racemic ornidazole, ornidazole]",recovery of spontaneous activity,mice [1]; 40 mg/kg intravenous,gradually become normal after 2 hours
same,spontaneous activity compared with the vehicle control group,mice [1]; 40 mg/kg intravenous,reduced significantly 1 hour after administration
same,recovery of spontaneous activity,mice [1]; 80 mg/kg intravenous,gradually become normal after 3 hours
same,spontaneous activity compared with the vehicle control group,mice [1]; 80 mg/kg intravenous,"reduced significantly at 0.5, 1 and 2 hours"
same,recovery of spontaneous activity,mice [1]; 160 mg/kg intravenous,gradually become normal after 4 hours
same,spontaneous activity compared with the vehicle control group,mice [1]; 160 mg/kg intravenous,"reduced significantly at 0.5, 1, 2 and 3 hours"
same,ED50,"[2]; Peptostreptococcus, oral gavage twice (immediately and 6 hours after infection), read-out: ED50 (half effective dose)",49.1 mg/kg
same,95% CI of ED50,[2],61.1˜39.4 mg/kg
same,ED50,"[3]; Bacteroides, oral gavage twice (immediately and 6 hours after infection), read-out: ED50 (half effective dose)",39.9 mg/kg
same,95% CI of ED50,[3],51.9˜30.7 mg/kg
same,"sleep latency induced by sodium thiopental, compared with the vehicle control group",mice [4]; 40 mg/kg intravenous,no significant reduction
same,"sleep latency induced by sodium thiopental, compared with the vehicle control group",mice [4]; 80 mg/kg intravenous,significantly reduced
same,MIC Range,Bacteroides,2.0~16.0 mg/L
same,MIC50,"Bacteroides; Bacteroides, read-out: MIC50",4 µg/mL
same,MIC90,"Bacteroides; Bacteroides, read-out: MIC90",8 µg/mL
same,MIC Range,Veillonella,2.0~16.0 mg/L
same,MIC50,"Veillonella; Veillonella, read-out: MIC50",4 µg/mL
same,MIC90,"Veillonella; Veillonella, read-out: MIC90",8 µg/mL
same,MIC Range,Fusobacterium nucleatum,1.0~32.0 mg/L
same,MIC50,"Fusobacterium nucleatum; Fusobacterium nucleatum, read-out: MIC50",2 µg/mL
same,MIC90,"Fusobacterium nucleatum; Fusobacterium nucleatum, read-out: MIC90",32 µg/mL
same,MIC50,"Peptostreptococcus; Peptostreptococcus, read-out: MIC50",4 µg/mL
same,MIC90,"Peptostreptococcus; Peptostreptococcus, read-out: MIC90",8 µg/mL
same,MIC Range,Clostridium,1.0~2.0 mg/L
same,MIC50,"Clostridium; Clostridium, read-out: MIC50",2 µg/mL
same,MIC90,"Clostridium; Clostridium, read-out: MIC90",2 µg/mL
same,number of mice with loss in righting reflex,"mice [5]; both, mouse, in vivo, iv, 160 mg/kg, 30 min",6 mice
same,half-life,"[6]; both sexes, dog, beagle dogs, individual intravenous dose 13 mg/kg, plasma, HPLC, non-compartmental, read-out: t1/2 (half life) (converted)",5.55 ± 3.12 h
same,AUC(0-t),"[6]; both sexes, dog, beagle dogs, individual intravenous dose 13 mg/kg, plasma, read-out: AUC0-t (area under curve)",76700 ± 10800 ng·h/mL
same,clearance,"[6]; both sexes, dog, beagle dogs, individual intravenous dose 13 mg/kg, plasma, read-out: Cl (clearance) (converted)",23.8 mL/min
same,MRT,"[6]; both sexes, dog, beagle dogs, individual intravenous dose 13 mg/kg, plasma, read-out: MRT (mean retention time of drugs)",8.01 ± 3.42 h
same,Vd,"[6]; both sexes, dog, beagle dogs, individual intravenous dose 13 mg/kg, plasma, read-out: Vβ (elimination volume of distribution)",11.2 ± 3.96 L
